Measured values from patent publication US8309546B2, “Morpholinopurine derivatives” (Daiichi Sankyo Company, Limited, priority 2008, dated 2012).

How the values were obtained:
[1] = test system: human ovary cancer cell strain IGROV1; test: Cell growth inhibition test (MTT), IGROV1; format: cell-based; details: IGROV-1, 72 h, IGROV1, 3 days culture, read-out: concentration exhibiting anti-cell effect (GI50)
Summary of the method: (§1)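 Cells were seeded per well (AN3CA 5000, IGROV1 1000, HT29 5000), dosed next day and cultured 3 days at 37° C in 5% CO2. Viable cells were read by MTT (4 h, DMSO-solubilized formazan, A540). GI50 was interpolated between the two concentrations bracketing 50% growth rate (T/C %, corrected for day-0 absorbance).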

[2] = test system: human endometrial cancer cell strain AN3CA; test: Cell growth inhibition test (MTT), AN3CA; format: cell-based; details: AN3-CA, 72 h, 3 days culture, read-out: concentration exhibiting anti-cell effect (GI50)
Summary of the method: as §1

[3] = test system: Akt (threonine 308) phosphorylation in AN3CA tumor; test: Akt phosphorylation inhibition assay in xenograft; format: in vivo, female nude mouse; details: Mus musculus, AN3-CA, oral, 6 hr after dosing
Procedure: A tumor section was prepared from a human endometrial cancer cell strain AN3CA tumor mass formed in a female nude mouse as subcutaneously transplanted tumor and a xenograft model was prepared by subcutaneously transplanting the tumor to a female nude mouse. The test compound at a predetermined concentration was orally administered. After a predetermined time, the anesthetized mouse was exsanguinated to death, and a tumor mass was isolated. The tumor mass was crushed using a lysis buffer containing inhibitors of proteases and dephosphorylating enzymes (Cell Signaling Technology, Inc.) and the supernatant was separated by centrifugation to obtain a tumor extract. The protein content of the tumor extract was measured using DC Protein Assay Kit (Bio-Rad Laboratories, Inc.) and phosphorylation conditions of Akt (threonine 308) and S6 (serine 235 and 236) were analyzed by a usual technique of western blotting using tumor extracts containing the same amount of protein. The primary antibody and the secondary antibody used for detecting each molecule were rabbit anti-phospho-Akt(T308) antibody and HRP-labeled goat anti-rabbit IgG antibody or mouse anti-phospho-S6(S235/236) antibody and HRP-labeled sheep anti-mouse IgG antibody.
The signal intensity detected using an image analyzer Typhoon 9400 (GE Healthcare) was quantified, and the phosphorylation inhibition rate (%) was calculated by the following formula. Phosphorylation inhibitory activity (%) of Akt and S6 after treatment with test compound=100−100×(B/A) A: Signal intensity derived from phosphorylated protein in tumor mass isolated from mouse untreated with test compound B: Signal intensity derived from phosphorylated protein in tumor mass isolated from mouse treated with test compound

CC(C)Cn1c(N2CCN(S(C)(=O)=O)CC2)nc2c(N3CCOCC3)nc(-c3cnc(N)nc3)nc21 [Example 1, 5-{9-Isobutyl-8-[4-(methylsulfonyl)piperazin-1-yl]-6-morpholin-4-yl-9H-purin-2-yl}pyrimidin-2-amine]
GI50 [1]: ≤ 5 µM | GI50 [2]: ≤ 5 µM

CC(=O)N1CCN(c2nc3c(N4CCOCC4)nc(-c4cnc(N)nc4)nc3n2CC(C)C)CC1 [Example 2, 5-[8-(4-Acetylpiperazin-1-yl)-9-isobutyl-6-morpholin-4-yl-9H-purin-2-yl]pyrimidin-2-amine]
GI50 [1]: ≤ 5 µM | GI50 [2]: ≤ 5 µM

CS(=O)(=O)N1CCN(c2nc3c(N4CCOCC4)nc(-c4cnc(N)nc4)nc3n2CC2CC2)CC1 [Example 3, 5-{9-(Cyclopropylmethyl)-8-[4-(methylsulfonyl)piperazin-1-yl]-6-morpholin-4-yl-9H-purin-2-yl}pyrimidin-2-amine]
GI50 [1]: ≤ 5 µM | GI50 [2]: ≤ 5 µM | inhibition at 10 mg/kg [3]: > 60%

Cc1nc(N)ncc1-c1nc(N2CCOCC2)c2nc(N3CCN(S(C)(=O)=O)CC3)n(CC3CC3)c2n1 [Example 6, 5-{9-(Cyclopropylmethyl)-8-[4-(methylsulfonyl)piperazin-1-yl]-6-morpholin-4-yl-9H-purin-2-yl}-4-methylpyrimidin-2-amine]
GI50 [1]: ≤ 5 µM | GI50 [2]: ≤ 5 µM | inhibition at 10 mg/kg [3]: > 60%

CS(=O)(=O)N1CCN(c2nc3c(N4CCOCC4)nc(-c4cnc(N)nc4)nc3n2CC(F)(F)F)CC1 [Example 8, 5-{8-[4-(Methylsulfonyl)piperazin-1-yl]-6-morpholin-4-yl-9-(2,2,2-trifluoroethyl)-9H-purin-2-yl}pyrimidin-2-amine]
GI50 [1]: ≤ 5 µM | GI50 [2]: ≤ 5 µM | inhibition at 10 mg/kg [3]: > 60%

CC(=O)N1CCN(c2nc3c(N4CCOCC4)nc(-c4cnc(N)nc4)nc3n2CC2CC2)CC1 [Example 10, 5-[8-(4-Acetylpiperazin-1-yl)-9-(cyclopropylmethyl)-6-morpholin-4-yl-9H-purin-2-yl]pyrimidin-2-amine]
GI50 [1]: ≤ 5 µM | GI50 [2]: ≤ 5 µM

CNc1ncc(-c2nc(N3CCOCC3)c3nc(N4CCN(S(C)(=O)=O)CC4)n(CC(F)(F)F)c3n2)cn1 [Example 11, N-Methyl-5-{8-[4-(methylsulfonyl)piperazin-1-yl]-6-morpholin-4-yl-9-(2,2,2-trifluoroethyl)-9H-purin-2-yl}pyrimidin-2-amine]
GI50 [1]: ≤ 5 µM | GI50 [2]: ≤ 5 µM

C[C@@H]1CN(c2nc3c(N4CCOCC4)nc(-c4cnc(N)nc4)nc3n2CC(F)(F)F)C[C@H](C)N1 [Example 14, 5-[8-(cis-3,5-Dimethylpiperazin-1-yl)-6-morpholin-4-yl-9-(2,2,2-trifluoroethyl)-9H-purin-2-yl]pyrimidin-2-amine]
GI50 [1]: ≤ 5 µM | GI50 [2]: ≤ 5 µM

CC(C)Cn1c(N2CCN(S(C)(=O)=O)[C@@H](C)C2)nc2c(N3CCOCC3)nc(-c3cnc(N)nc3)nc21 [Example 53, 5-{9-Isobutyl-8-[(3S)-3-methyl-4-(methylsulfonyl)piperazin-1-yl]-6-morpholin-4-yl-9H-purin-2-yl}pyrimidin-2-amine]
GI50 [1]: ≤ 5 µM | GI50 [2]: ≤ 5 µM | inhibition at 10 mg/kg [3]: 30 to 60%

CC(C)Cn1c(N2CCN(S(C)(=O)=O)[C@H](C)C2)nc2c(N3CCOCC3)nc(-c3cnc(N)nc3)nc21 [Example 54, 5-{9-Isobutyl-8-[(3R)-3-methyl-4-(methylsulfonyl)piperazin-1-yl]-6-morpholin-4-yl-9H-purin-2-yl}pyrimidin-2-amine]
GI50 [1]: ≤ 5 µM | GI50 [2]: ≤ 5 µM | inhibition at 10 mg/kg [3]: 30 to 60%

CC(C)Cn1c(N2CCN(C(=O)CN(C)C)CC2)nc2c(N3CCOCC3)nc(-c3cnc(N)nc3)nc21 [Example 55, 5-(8-{4-[(Dimethylamino)acetyl]piperazin-1-yl}-9-isobutyl-6-morpholin-4-yl-9H-purin-2-yl)pyrimidin-2-amine]
GI50 [1]: ≤ 5 µM | GI50 [2]: ≤ 5 µM

CS(=O)(=O)C1CCN(c2nc3c(N4CCOCC4)nc(-c4cnc(N)nc4)nc3n2CC(F)(F)F)CC1 [Example 57, 5-{8-[4-(Methylsulfonyl)piperidin-1-yl]-6-morpholin-4-yl-9-(2,2,2-trifluoroethyl)-9H-purin-2-yl}pyrimidin-2-amine]
GI50 [1]: ≤ 5 µM | GI50 [2]: ≤ 5 µM | inhibition at 10 mg/kg [3]: 30 to 60%

CC(=O)N1CCN(c2nc3c(N4CCOCC4)nc(-c4cnc(N)nc4)nc3n2CC(F)(F)F)C[C@H]1C [Example 60, 5-{8-[(3R)-4-Acetyl-3-methylpiperazin-1-yl]-6-morpholin-4-yl-9-(2,2,2-trifluoroethyl)-9H-purin-2-yl}pyrimidin-2-amine]
GI50 [1]: ≤ 5 µM | GI50 [2]: ≤ 5 µM | inhibition at 10 mg/kg [3]: > 60%

C[C@@H]1CN(c2nc3c(N4CCOCC4)nc(-c4cnc(N)nc4)nc3n2CC(F)(F)F)CCN1S(C)(=O)=O [Example 61, 5-{8-[(3R)-3-Methyl-4-(methylsulfonyl)piperazin-1-yl]-6-morpholin-4-yl-9-(2,2,2-trifluoroethyl)-9H-purin-2-yl}pyrimidin-2-amine]
GI50 [1]: ≤ 5 µM | GI50 [2]: ≤ 5 µM | inhibition at 10 mg/kg [3]: > 60%

C[C@H]1CN(c2nc3c(N4CCOCC4)nc(-c4cnc(N)nc4)nc3n2CC(F)(F)F)CCN1S(C)(=O)=O [Example 62, 5-{8-[(3S)-3-Methyl-4-(methylsulfonyl)piperazin-1-yl]-6-morpholin-4-yl-9-(2,2,2-trifluoroethyl)-9H-purin-2-yl}pyrimidin-2-amine]
GI50 [1]: ≤ 5 µM | GI50 [2]: ≤ 5 µM | inhibition at 10 mg/kg [3]: 30 to 60%

CC(=O)N1CCN(c2nc3c(N4CCOCC4)nc(-c4cnc(N)nc4)nc3n2CC(F)(F)F)C[C@@H]1C [Example 63, 5-{8-[(3S)-4-Acetyl-3-methylpiperazin-1-yl]-6-morpholin-4-yl-9-(2,2,2-trifluoroethyl)-9H-purin-2-yl}pyrimidin-2-amine]
GI50 [1]: ≤ 5 µM | GI50 [2]: ≤ 5 µM | inhibition at 10 mg/kg [3]: > 60%

CS(=O)(=O)N1CCN(c2nc3c(N4CCOCC4)nc(-c4cnc(N)nc4)nc3n2CC(F)F)CC1 [Example 64, 5-{9-(2,2-Difluoro-ethyl)-8-[4-(methylsulfonyl)piperazin-1-yl]-6-morpholin-4-yl-9H-purin-2-yl}pyrimidin-2-amine]
GI50 [1]: ≤ 5 µM | GI50 [2]: ≤ 5 µM | inhibition at 10 mg/kg [3]: 30 to 60%

CC(=O)C(=O)N1CCN(c2nc3c(N4CCOCC4)nc(-c4cnc(N)nc4)nc3n2CC(F)(F)F)CC1 [Example 65, 1-{4-[2-(2-Aminopyrimidin-5-yl)-6-morpholin-4-yl-9-(2,2,2-trifluoroethyl)-9H-purin-8-yl]piperazin-1-yl}-1-oxoacetone]
GI50 [1]: ≤ 5 µM | GI50 [2]: ≤ 5 µM | inhibition at 10 mg/kg [3]: 30 to 60%

CN(C)C(=O)C(=O)N1CCN(c2nc3c(N4CCOCC4)nc(-c4cnc(N)nc4)nc3n2CC(F)(F)F)CC1 [Example 66, 2-{4-[2-(2-Aminopyrimidin-5-yl)-6-morpholin-4-yl-9-(2,2,2-trifluoroethyl)-9H-purin-8-yl]piperazin-1-yl}-N,N-dimethyl-2-oxoacetamide]
GI50 [1]: ≤ 5 µM | GI50 [2]: ≤ 5 µM | inhibition at 10 mg/kg [3]: 30 to 60%

Nc1ncc(-c2nc(N3CCOCC3)c3nc(N4CCN(C(=O)CO)CC4)n(CC(F)(F)F)c3n2)cn1 [Example 67, 2-{4-[2-(2-Aminopyrimidin-5-yl)-6-morpholin-4-yl-9-(2,2,2-trifluoroethyl)-9H-purin-8-yl]piperazin-1-yl}-2-oxoethanol]
GI50 [1]: ≤ 5 µM | GI50 [2]: ≤ 5 µM | inhibition at 10 mg/kg [3]: 30 to 60%

C[C@H](O)C(=O)N1CCN(c2nc3c(N4CCOCC4)nc(-c4cnc(N)nc4)nc3n2CC(F)(F)F)CC1 [Example 68, (2S)-1-{4-[2-(2-Aminopyrimidin-5-yl)-6-morpholin-4-yl-9-(2,2,2-trifluoroethyl)-9H-purin-8-yl]piperazin-1-yl}-1-oxopropan-2-ol]
GI50 [1]: ≤ 5 µM | GI50 [2]: ≤ 5 µM | inhibition at 10 mg/kg [3]: > 60%

C[C@H]1COCCN1c1nc(-c2cnc(N)nc2)nc2c1nc(N1CCN(S(C)(=O)=O)CC1)n2CC(F)(F)F [Example 127, 5-{6-[(3S)-3-Methylmorpholin-4-yl]-8-[4-(methylsulfonyl)piperazin-1-yl]-9-(2,2,2-trifluoroethyl)-9H-purin-2-yl}pyrimidin-2-amine]
GI50 [1]: ≤ 5 µM | GI50 [2]: ≤ 5 µM

CC(=O)N1CCN(c2nc3c(N4CCOC[C@@H]4C)nc(-c4cnc(N)nc4)nc3n2CC(C)C)CC1 [Example 129, 5-{8-(4-Acetylpiperazin-1-yl)-9-isobutyl-6-[(3S)-3-methylmorpholin-4-yl]-9H-purin-2-yl}pyrimidin-2-amine]
GI50 [1]: ≤ 5 µM | GI50 [2]: ≤ 5 µM
